PubChem BioAssay (NCI)
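Values below derive from 48-hour exposures of cells grown in 96-well plates, with endpoints linearly interpolated between the two concentrations bracketing the appropriate inhibition level. GI50: concentration for 50% inhibition of growth. TGI marks complete inhibition of growth.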

Key:
Test in all cases: growth of human tumour cells (NCI), 48 h
NCI-H460 lung = test system: NCI-H460 lung
CAKI-1 renal = test system: CAKI-1 renal
SK-MEL-28 melanoma = test system: SK-MEL-28 melanoma
NCI-H226 lung = test system: NCI-H226 lung
RXF 393 renal = test system: RXF 393 renal
SF-295 CNS = test system: SF-295 CNS
OVCAR-8 ovarian = test system: OVCAR-8 ovarian
MDA-N = test system: MDA-N
M14 melanoma = test system: M14 melanoma
A498 renal = test system: A498 renal

Compound	TGI (NCI-H460 lung) [µM]	TGI (CAKI-1 renal) [µM]	TGI (SK-MEL-28 melanoma) [µM]	TGI (NCI-H226 lung) [µM]	TGI (RXF 393 renal) [µM]	TGI (SF-295 CNS) [µM]	TGI (OVCAR-8 ovarian) [µM]	TGI (MDA-N) [µM]	TGI (M14 melanoma) [µM]	TGI (A498 renal) [µM]	GI50 (A498 renal) [µM]	GI50 (NCI-H460 lung) [µM]	GI50 (M14 melanoma) [µM]	GI50 (CAKI-1 renal) [µM]	GI50 (NCI-H226 lung) [µM]	GI50 (RXF 393 renal) [µM]	GI50 (SF-295 CNS) [µM]	GI50 (OVCAR-8 ovarian) [µM]	GI50 (SK-MEL-28 melanoma) [µM]
COC(=O)C1Cc2c([nH]c3ccccc23)-c2[nH]c3ccccc3c2CC(NC(C)=O)C(=O)N2CCCC2C(=O)N1 (centres undefined)	> 100	> 100	> 100	18.3	> 100	> 100	> 100	> 100											
CP(=O)(O)C(N)c1ccccc1 (centres undefined)	> 100	> 100	> 100	> 100		> 100	> 100	> 100	> 100										
O=C(CSc1nnc(-c2ccc(N=Cc3ccc(Cl)cc3)cc2)o1)Nc1cccc([N+](=O)[O-])c1	> 100		> 100	> 100	> 100	> 100	> 100		> 100										
O=C1C(=Cc2ccc([N+](=O)[O-])o2)C(=O)N(CCc2ccccc2)S(=O)(=O)N1CCc1ccccc1	> 100		28	41.4	34.1	> 100	79.2		29										
CCOC(=O)C1=C(O)c2ccc(OC)cc2C(=O)C1=O	> 100	> 100	> 100	> 100	> 100	> 100	> 100		> 100	> 100									
COC1=CC(c2ccc[nH]2)=N/C1=C\c1[nH]c(C)c(C)c1CCC(=O)OCc1ccccc1	10.8	2.08		2.46	1.83	0.894	1.44		1	1.99	0.563	0.623	0.285	0.3	0.377	0.496	0.224	0.366	
O=C1C(Cl)C(c2ccc([N+](=O)[O-])cc2)N1n1cnc2ccccc2c1=O (centres undefined)	> 100	> 100	> 100	> 100	72.1	68.9	> 100		> 100										
CON(C(=O)OC(C)(C)C)c1ccccc1	> 100	> 100	> 100	> 100	> 100	> 100	> 100		> 100	> 100									
O=C1NC(Cc2ccccc2)C(=O)N2CCCC12 (centres undefined)	> 100	> 100	> 100	> 100	> 100	> 100	> 100		> 100	> 100									
N/C(=N/N=C/c1cccc(F)c1)NO	> 100	91.7	> 100	> 100	78.4	> 100	> 100		56	> 100									
COc1ccc(N2C(=O)C3C=CC(n4[nH]c(=O)n(Cc5ccccc5)c4=O)CC3C2=O)cc1 (centres undefined)	> 100	> 100	> 100	> 100	> 100	> 100	> 100		> 100	> 100									
CC(=O)Nc1ccc(C(=O)n2[nH]c(C)c(/C=C3\C(=O)C=Cc4ccccc43)c2=O)cc1	> 100	> 100	> 100	> 100		> 100	> 100		> 100										
Cc1cc(=O)[nH]c(NNC(C#N)c2ccc(N(C)C)cc2)n1 (centres undefined)	> 100	> 100	> 100	> 100	> 100	> 100	> 100		> 100										
CCCCc1c2c(nc3c1CCCC3=O)CCCC2	> 100		> 100	65.6		> 100	> 100		> 100										
CCOP(=O)(OCC)C(C)(CC)/N=C(\N)NC#N (centres undefined)	> 100		> 100	> 100	> 100	> 100	> 100	> 100	> 100										
COCC1N=C(c2cc(OC)c(OC)c(OC)c2-c2cc3c(cc2[C@@H](C)O)OCO3)O[C@H]1c1ccccc1 (some centres undefined)	> 100	> 100	> 100	> 100	> 91.6	> 100	> 100			> 100									
COc1cc(CC(=O)c2cc3c(cc2-c2ccccc2)OCO3)cc(OC)c1OC	> 100		> 100	79.3	> 100	> 100	> 100		> 100	> 100									
O=C(NCCC1CN(S(=O)(=O)C(F)(F)F)c2ccccc21)OCc1ccccc1 (centres undefined)	> 100	> 100	> 100		> 100	> 100	> 100		> 100	> 100									

Compound	TGI (NCI-H460 lung) [µM]	TGI (CAKI-1 renal) [µM]	TGI (SK-MEL-28 melanoma) [µM]	TGI (NCI-H226 lung) [µM]	TGI (RXF 393 renal) [µM]	TGI (SF-295 CNS) [µM]	TGI (OVCAR-8 ovarian) [µM]	TGI (MDA-N) [µM]	TGI (M14 melanoma) [µM]	TGI (A498 renal) [µM]	GI50 (A498 renal) [µM]	GI50 (NCI-H460 lung) [µM]	GI50 (M14 melanoma) [µM]	GI50 (CAKI-1 renal) [µM]	GI50 (NCI-H226 lung) [µM]	GI50 (RXF 393 renal) [µM]	GI50 (SF-295 CNS) [µM]	GI50 (OVCAR-8 ovarian) [µM]	GI50 (SK-MEL-28 melanoma) [µM]
c1ccc(Sc2nc(Sc3ccccc3)nc(Sc3ccccc3)n2)cc1	> 100	> 100	> 100	77.9	> 100	> 100			> 100	86.8									
CC(C)OC(=O)c1cccnc1/C=N/O	> 100	> 100		> 100		> 100	> 100		> 100	> 100									
Nc1ccn(CCCC(c2ccccc2)P(=O)(O)O)c(=O)n1 (centres undefined)	> 100	> 100	> 100			> 100	> 100		> 100	> 100									
O=P(Nc1cccc(Cl)c1)(Oc1ccccc1)N(CCCl)CCCl (centres undefined)		31.5	30.5	29.6		28.1	37.9		28.6	27.6									
CCSc1[nH]c(NC(=NC(C)C)NC(=O)c2ccccc2)c(C(N)=O)c1C(N)=O		> 10	> 10		> 10	> 10	> 10	> 10	> 10										
COc1cc(O)c2c(=O)c(OC)c(-c3ccc(OC)c(OC)c3)oc2c1.[Sn]	> 100	> 100	> 100	> 100	> 100	> 100	> 100	> 100	> 100				> 100				17.4	> 100	> 100
C[C@]12CCC(=O)C=C1CC[C@@H]1C2CC[C@@]2(C)C1CC[C@@H]2OC(=O)C12OC1CCC2=O (some centres undefined)	31.8		31.6	38.2	16.8	34.7	38.6		32.9	35.6									
CC(=O)N1CCN(CCCCN2c3ccccc3Sc3cc(N=[N+]=[N-])ccc32)CC1	28.1	24.9	33.4	35.5	24.4	31.5	32	30.5											
CN(C)CCNC(=O)c1cccc2[nH]c(-c3ccc(Cl)cc3)nc12	13.2	12.8	31.9	14.4	21.3	21.3	20.8			24									
COC(=O)CC1NC(=O)C1C(C)(OC)OC (centres undefined)	> 100		> 100	> 100	> 100	> 100	> 100		> 100	> 100									
COc1ccc(NC(=O)C2=CC(=O)c3ccc(O)cc3C2=O)c(OC)c1	> 100	> 100	> 100	> 100	> 100	> 100	> 100		> 100	> 100									
O=C1NC2OC(CO)C(O)C(O)C2O1 (centres undefined)	> 100	> 100	> 100			> 100	> 100		> 100	> 100									
CC1(C)OC2[C@@H](CO[C@@]3([C@H]4OC(C)(C)O[C@@H]4CO)OC(C)(C)O[C@@H]23)O1 (some centres undefined)	> 100		> 100	> 100	> 100	> 100	> 100	> 100	> 100										
CC(C)(CO)NC(=O)c1cccs1	> 100	> 100	> 100			> 100	> 100		> 100										
COc1ccc(N2C(=O)C(=O)C3(CCCCC3)C2=O)c(OC)c1OC		> 100	> 100	> 100	> 100	> 100	> 100	> 100	> 100										
CNC(=O)c1cc(Oc2cccc3nc(NC(=O)Nc4ccc(F)cc4F)ccc23)ccn1		> 50	> 50		2.99		> 50		> 50	23.3	0.418		1.89	1.61		1.24		1.65	1.42
NNC(=S)NN/C=C(\C=Nc1ccccc1)[N+](=O)[O-]		> 100	> 100	> 100	> 100	> 100	> 100		> 100										
COc1ccc(/C=C(\C2=NC(=O)CS2)c2nc3ccccc3[nH]2)cc1	> 100	> 100	> 100	28.6	6.81	> 100	> 100		> 100	> 100									
